Consider four molecules from patent US20160304573A1, “FIBROMODULIN PEPTIDE” (The Regents of the University of California, priority 2010, published 2016).

The target of one assay is T1, TGF-β3 (Homo sapiens, UniProt P10600).
T1 sequence (P10600 301-412 limits assumed): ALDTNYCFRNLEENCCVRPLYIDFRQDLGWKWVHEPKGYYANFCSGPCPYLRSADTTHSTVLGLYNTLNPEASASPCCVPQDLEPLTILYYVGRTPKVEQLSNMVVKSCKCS
Description: TGF-β3 binding to biotinylated FMOD/FMOD peptides on avidin resin; non-bound TGF-β read by Mv1Lu growth inhibition (MTT). The following applies: ratios 1:1, 10:1, 100:1, 1000:1 to TGF-β; FIG. 15. Here is the method:
(§1) FMOD (whole protein) (SEQ ID NO:1), FMOD peptides and control protein BSA were biotinylated. While, the biotinylated proteins and peptides were bound to commercial available Piece Monomeric Avidin UltraLink Resin (Piece). The amounts of each test peptides/proteins are 1:1, 10:1, 100:1 and 1000:1 to TGF-βs, respectively. After washing out the non-bound residues, appropriate amount TGF-βs (based on the primary test assay) were added to the resin at 4° C. After overnight binding, non-bound TGF-βs were collected, followed by filter sterilization. Then, the TGF-βs residue were diluted 100 times in DEME-0.5% FBS to ensure the concentration was located in the linear region of TGF-βs on Mv1Lu proliferate inhibition.
(§2) Diluted TGF-βs was added to overnight serum-starved Mv1Lu, and fresh TGF-βs media were added for another 24 hour before MTT assay. Samples with no TGF-βs added were employed as controls.

Another assay addresses T2, TGF-β2 (Homo sapiens, UniProt P61812).
T2 sequence (P61812 303-414 limits assumed): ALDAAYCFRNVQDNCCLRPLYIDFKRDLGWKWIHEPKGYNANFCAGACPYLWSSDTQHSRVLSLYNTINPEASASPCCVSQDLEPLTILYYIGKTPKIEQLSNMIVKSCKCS
Description: TGF-β2 binding to biotinylated FMOD/FMOD peptides on avidin resin; non-bound TGF-β read by Mv1Lu growth inhibition (MTT). The following applies: ratios 1:1, 10:1, 100:1, 1000:1 to TGF-β; FIG. 14. On the procedure:
as §1, §2

The target in assay [1] is T3, TGF-β1 (Homo sapiens, UniProt P01137). The assay can be described thus: TGF-β1 binding to biotinylated FMOD/FMOD peptides on avidin resin; non-bound TGF-β read by Mv1Lu growth inhibition (MTT). The note with it: ratios 1:1, 10:1, 100:1, 1000:1 to TGF-β; overnight 4° C.; FIG. 13. Here is the method:
as §1, §2

Assay [2] deals with connective tissue growth factor (CTGF) expression. The assay can be described thus: CTGF expression and cell aggregation in Rat-2 cells, confocal staining. The class given is cell-based. On the procedure: Results of exemplary tests on each of FMOD and FMOD-P, alone or in combination with TGF-β on CTGF expression are shown in FIGS. 28A-28D. In these tests, 4,000 cells/well passage 18 Rat-2 cells were seeded in 8-well chamber slices in DMEM medium with 10% FBS. After 6 h adhesion, fresh DMEM medium with 0.5% FBS was employed for overnight serum starvation and then treatment media added. Treatment media were changed after 24 h. Cells were fixed and staining at 48 h. Photos were captured at 630× magnifications using a confocal microscope. In these figures, the cells were stained for CTGF (connective tissue growth factor, a factor involved in cell proliferation, migration and matrix production) or DAPI (4′,6-diamidino-2-phenylindole a fluorescent stain that binds strongly to DNA-used for nuclear staining). Merged images showing both CTGF and DAPI staining are also shown.

In assay [3] the test system is Rat-2 cells. Description: H&E morphology of Rat-2 cells. The class given is cell-based. On the procedure: Exemplary tests were performed to better delineate cell morphology.
Assay [4] concerns α-smooth muscle actin (α-SMA) expression. The assay can be described thus: α-SMA expression staining. The class given is cell-based. The following applies: mono-treatment (200 nM FMOD or 100 pM TGF-β1); FIGS. 25B, 25C. Here is the method:
Exemplary tests on effects of FMOD and TGF-β or FMOD peptides and TGF-β on α-SMA expression were performed and shown in FIGS. 25A-25D. Expression levels of α-SMA, which is a marker for the transition of fibroblasts to myofibroblasts, were measured and presented in staining in these figures.

In assay [5] the test system is Rat-2 cells. The assay can be described thus: Rat-2 cell migration by scratching method. The class given is cell-based. The following applies: alone (200 nM FMOD or 100 pM TGF-β), 24 hours. Here is the method:
1×10^6 cell/well Rat-2 cells were seeded in 6-well plated with 3 ml DMEM-10% FBS. After 6 hours for adhesion, fresh DMEM-0.5% FBS medium was changed for serum-starving overnight. After pre-warmed DMEM rinsing, four wounds (each 1 mm wide; two horizontal and two vertical) were scratched employing a 1-ml tip for each treatment group. Cells were rinsed by DMEM for three times, followed by incubation with treatment medium [DMEM-0.5 FBS containing 100 pM (2.5 ng/ml) TGF-β1 (SEQ ID NO:64) or -β3 (SEQ ID NO:66) w/o 200 nM (11.2 μg/ml) FMOD (SEQ ID NO:1)] for 24 hours. Photos were captured at both 0-h and 24-h after the scratching. The unclosed distance was measured and quantified as an average gap (A) and migration index (B). Similar results were reproduced in four independent experiments. The scale bar in (A) equal to 100 The asterisks in (B) present P<0.05.
(§3) Similar to FMOD (whole protein), the effect of FMOD peptides and/or TGF-β on cell migration was also evaluated by scratching method (FIGS. 18C and 25D). At the same time, cell migration/invasion in Matrigel was documented at 100× magnificent after 24 hour treatment and quantitated using DAPI nuclear staining (100 rather than 200× magnification was used because one group's invasion is quite low) (see the results in FIG. 20A and DAPI pictures in FIG. 20B). Passage 18 Rat-2 cells (20,000 cells/well) were used for the test under the treatment of 100 pM TGF-β1 (SEQ ID NO:64)/133 (SEQ ID NO:66) with/without 200 nM FMOD-F07-40C in DMEM-0.5% FBS.

The target in assay [6] is T4, Bovine serum albumin (BSA) (bovine, UniProt P02769 25-607).
T4 construct: also called control BSA; control protein BSA
T4 sequence (P02769 25-607 limits assumed): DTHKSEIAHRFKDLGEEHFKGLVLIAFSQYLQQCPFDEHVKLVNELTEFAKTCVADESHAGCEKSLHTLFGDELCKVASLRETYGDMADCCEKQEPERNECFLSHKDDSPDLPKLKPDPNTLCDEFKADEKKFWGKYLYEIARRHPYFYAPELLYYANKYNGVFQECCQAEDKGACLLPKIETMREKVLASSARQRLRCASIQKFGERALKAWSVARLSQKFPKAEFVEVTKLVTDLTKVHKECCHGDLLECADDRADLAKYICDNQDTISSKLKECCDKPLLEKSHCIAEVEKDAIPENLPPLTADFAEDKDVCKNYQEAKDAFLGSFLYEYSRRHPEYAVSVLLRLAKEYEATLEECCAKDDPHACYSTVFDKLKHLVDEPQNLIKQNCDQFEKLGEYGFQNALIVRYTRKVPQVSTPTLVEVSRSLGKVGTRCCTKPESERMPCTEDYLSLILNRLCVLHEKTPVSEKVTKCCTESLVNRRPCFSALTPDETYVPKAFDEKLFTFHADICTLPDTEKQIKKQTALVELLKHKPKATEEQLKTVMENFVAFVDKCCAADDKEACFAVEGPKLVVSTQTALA
The assay can be described thus: biotinylated protein on avidin resin, unbound TGF-β read by Mv1Lu growth inhibition (MTT). On the procedure: as §1, §2

The subject of assay [7] is Rat-2 cells. The assay can be described thus: Rat-2 cell migration/invasion in Matrigel, DAPI nuclear staining. In kind it is cell-based. The following applies: alone (200 nM FMOD or peptide, or 100 pM TGF-β), 24 hour treatment. On the procedure:
Cell migration/invasion in Matrigel was documented at 200× magnificent after 24 hour treatment and quantitated using DAPI nuclear staining (results shown in FIG. 19A and repeat results in FIGS. 26B and 26C; DAPI pictures are shown in FIG. 19D).
as §3
Passage 18 Rat-2 cells (20,000 cells/well) were used for the test under the treatment of 100 pM TGF-β1/β3 with/without 200 nM FMOD-F06-40C in DMEM-0.5% FBS (FIG. 20C).

In assay [8] the target is T3, TGF-β1. The assay can be described thus: ELISA analysis of binding with TGF-β1. The following applies: BSA as negative control; FIG. 3. The source says: Bovine serum albumin (BSA) was used as negative control.
SUMO-CAT from the recombinant bacteria harboring control plasmid pET_SUMO/CAT was used as negative control. To the knowledge of inventors, the TGF-binding sites within FMOD have not been reported.
On the technique in general: ELISA stands for enzyme-linked immunosorbent assay.

T3 sequence (P01137 279-390 limits assumed): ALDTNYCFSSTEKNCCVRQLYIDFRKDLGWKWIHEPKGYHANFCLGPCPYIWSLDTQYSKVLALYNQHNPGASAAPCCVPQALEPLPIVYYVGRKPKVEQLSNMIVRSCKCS

For “Bovine serum albumin [BSA, reference compound]”, the TGF-β3 binding result on TGF-β3 is reported as “did not bind to TGF-β3 even at high ratios”. For the same molecule, the TGF-β2 binding entry on TGF-β2 is listed as “minimal TGF-β2 binding”. For the same molecule, the TGF-β1 binding result at TGF-β1 [1] is listed as “minimal TGF-β1 binding except at very high ratios”.

Consider TGF-β1: TGF-β isoform, SEQ ID NO:64, for which the CTGF expression result in assay [2] (mono-treatment (200 nM FMOD or 100 pM TGF-β1), 48 h, FIGS. 21B, 21C) is “moderate CTGF expression”. For the same molecule, the “CTGF expression (green fluorescence)” value in assay [2] (mono-treatment, another set of similar studies, FIG. 24) is reported as “increases expression of CTGF”. Also, the “nodule-like cell aggregations/condensations, number” value with Rat-2 cells [3] (100 pM TGF-β1 alone, 8-well chamber slides) is “< one”. For the same molecule, in the assay with Rat-2 cells [3] (mono-treatment (200 nM FMOD or 100 pM TGF-β1), relative to controls), the “cell aggregation/density (H&E)” value is “slightly increased the Rat-2 cell density”. Moreover, the α-SMA staining result in [4] was “moderate α-SMA staining”.

B1: TGF-β3 (ligand)
chain: NCCVRPLYIDFRQDLGWKWVHEPKGYYANFCSGPCPYLRSADTTHSTVLGLYNTLNPEASASPCCVPQDLEPLTILYYVGRTPKVEQLSNMVVKSCKCS
As for B1, the “cell migration, scratch” value in the assay on Rat-2 cells [5] was “inhibited migration”. The binding result in [6] is listed as “no binding”. Moreover, the “cell migration/invasion in Matrigel” value in the assay on Rat-2 cells [7] was “inhibited migration”.

B2: native extract bovine FMOD: native extract bovine FMOD, comparator in ELISA (protein)
chain: QYEEDSHWWFQFLRNQQSTYDDPYDPYPYEPYEPYPYGGEEGPAYAYGSPPQPEPRDCPQECDCPPNFPTAMYCDNRNLKYLPFVPSRMKYVYFQNNQISSIQEGVFDNATGLLWIALHGNQITSDKVGKKVFSKLRHLERLYLDHNNLTRIPSPLPRSLRELHLDHNQISRVPNNALEGLENLTALYLHHNEIQEVGSSMKGLRSLILLDLSYNHLRKVPDGLPSALEQLYLEHNNVFSVPDSYFRGSPKLLYVRLSHNSLTNNGLASNTFNSSSLLELDLSYNQLQKIPPVSTNLENLYLQGNRINEFSISSFCTVVDVMNFSKLQVLRLDGNEIKRSAMPADAPLCLRLASLIEI
With B2, the “binding with TGF-β1 in ELISA assay” value with TGF-β1 [8] is recorded as “able to bind with TGF-β1”.
